Data taken from ChEMBL document CHEMBL1201862, “PubChem BioAssay data set” (2004).
Activity calls are given as the source filed them.

How the values were obtained:
[1] = A549 cell cytotoxicity, dose response, cytotoxicity control, 24 h, CellTiter-Glo luminescence, cherry-picks (AID 1053115); assay type: functional, cell-based; settings: A549, 24 h
[2] = Counterscreen for inhibitors of Trypanosoma brucei methionyl tRNA synthetase (MetRS): Luminescence-based cell-based high throughput dose response assay to identify compounds that are cytotoxic to Jurkat human T lymphocyte cells.; assay type: functional
[3] = target: T1, Methionyl-tRNA synthetase, putative (Trypanosoma brucei brucei, UniProt Q38C91); assay type: functional, Trypanosoma brucei brucei strain 927/4 GUTat10.1
T1 sequence (Q38C91 whole entry): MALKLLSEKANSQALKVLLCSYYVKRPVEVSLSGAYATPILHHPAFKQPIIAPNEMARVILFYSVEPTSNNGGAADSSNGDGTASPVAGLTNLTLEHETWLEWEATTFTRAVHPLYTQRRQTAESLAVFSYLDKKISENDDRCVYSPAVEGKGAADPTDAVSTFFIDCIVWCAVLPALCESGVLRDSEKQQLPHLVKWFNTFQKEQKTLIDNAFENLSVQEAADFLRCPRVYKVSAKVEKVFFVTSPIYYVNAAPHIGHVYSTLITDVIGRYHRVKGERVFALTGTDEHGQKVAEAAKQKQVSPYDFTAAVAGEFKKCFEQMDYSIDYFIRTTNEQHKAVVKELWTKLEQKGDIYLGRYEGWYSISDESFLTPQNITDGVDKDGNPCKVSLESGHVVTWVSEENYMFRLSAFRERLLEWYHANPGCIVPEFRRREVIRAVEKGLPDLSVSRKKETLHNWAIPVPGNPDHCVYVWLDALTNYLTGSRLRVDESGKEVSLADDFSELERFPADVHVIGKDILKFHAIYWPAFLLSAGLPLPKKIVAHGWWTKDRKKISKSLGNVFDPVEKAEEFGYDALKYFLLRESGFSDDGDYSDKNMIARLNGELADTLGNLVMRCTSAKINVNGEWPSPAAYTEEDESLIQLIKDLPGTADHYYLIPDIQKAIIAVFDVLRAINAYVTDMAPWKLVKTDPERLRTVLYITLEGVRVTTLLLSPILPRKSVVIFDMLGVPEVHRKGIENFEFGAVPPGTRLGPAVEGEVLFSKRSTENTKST

[4] = target: T1, Methionyl-tRNA synthetase, putative; assay type: functional, Trypanosoma brucei brucei strain 927/4 GUTat10.1; remark: listed apart in the source
[5] = Late stage counterscreen for inhibitors of Trypanosoma brucei methionyl tRNA synthetase (MetRS): Luminescence-based cell-based high throughput dose response assay to identify compounds that are cytotoxic to Jurkat human T lymphocyte cells.; assay type: functional
[6] = cytotoxicity in OVCAR8 ovarian cancer cells, dose response, PAX8 project, cell-based, plate reader, dry powder samples (AID 743197); assay type: functional; settings: OVCAR-8
[7] = NIH:OVCAR-3 ovarian cancer cell cytotoxicity, dose response, PAX8 inhibitor project, plate reader, dry powder samples (AID 743044); assay type: functional, cell-based
[8] = HEK293 cell cytotoxicity, dose response, cytotoxicity control, plate reader, cherry-picked samples (AID 743446); assay type: functional, cell-based
[9] = MC4R antagonists, dose response, counter-screen for LGR2 antagonist project, cell-based, plate reader, cherry pick (AID 743444); assay type: functional;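 note: transfected HEK 293 cells stimulated with alpha-MSH peptide; potency of inhibitors of the alpha-MSH evoked signal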
[10] = A549 cell cytotoxicity, dose response, cytotoxicity control, plate reader, cherry-pick, antagonist series (AID 743412); assay type: functional, cell-based
Paired box protein Pax-8 = Paired box protein Pax-8 (Homo sapiens, UniProt Q06710); assay: inhibitors of PAX8-driven TPO luciferase reporter, dose response, RMG-I cells, cherry-pick (AID 687027); assay type: functional, cell-based;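 note: luciferase reporter driven by Pax8 target thyroperoxidase promoter measured by SteadyGlo luminescence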
[11] = P. falciparum 3D7-ScDHODH growth inhibitors, dose response, SYBR Green, dry powder samples (AID 1159570); assay type: functional, cell-based;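 note: parasite growth measured after 72 hours of compound exposure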
[12] = P. falciparum ATP4 D1247Y mutant growth inhibitors, dose response, NITD609-resistant line, SYBR Green, dry powder (AID 1159571); assay type: functional, cell-based;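 note: parasites synchronized at ring stage by sorbitol before testing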
[13] = P. falciparum Dd2 growth inhibitors, dose response, SYBR Green, dry powder samples (AID 1159566); assay type: functional, cell-based;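 note: potency for growth inhibition with lower SYBR green DNA signal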
[14] = IOSE-T80 ovarian epithelial cell cytotoxicity, dose response, cytotoxicity control for PAX8 inhibitor project, plate reader, dry powder samples (AID 743045); assay type: functional, cell-based
[15] = HepG2 cell cytotoxicity, dose response, cytotoxicity control, plate reader, cherry-pick, antagonist series (AID 743416); assay type: functional, cell-based
[16] = IGROV1 ovarian cancer cell cytotoxicity, dose response, PAX8 inhibitor project, plate reader, dry powder samples (AID 743043); assay type: functional, cell-based; settings: IGROV-1
[17] = HepG2 cell cytotoxicity, dose response, cytotoxicity control, plate reader, dry powder samples (AID 1159569); assay type: functional, cell-based;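 note: inhibitor potency with signal falling toward the positive control level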
[18] = P. falciparum Dd2 growth inhibitors, dose response, SYBR Green, cherry-picked samples (AID 1159567); assay type: functional, cell-based
[19] = LGR2 antagonists, dose response, cell-based, HEK293, CRE-luciferase reporter, cherry pick, set 2 (AID 743343); assay type: functional;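 note: transfected cells were stimulated with diluted bursicon conditioned medium after compound addition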
[20] = A2780 ovarian cancer cell cytotoxicity, dose response, cytotoxicity control, plate reader, dry powder samples (AID 743046); assay type: functional, cell-based
[21] = A375 melanoma cell cytotoxicity, dose response, counter-screen for MITF inhibitor project, CellTiter-Glo luminescence, dry powder, set 2 (AID 624489); assay type: functional, cell-based; settings: A-375;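 note: actives are compounds lowering A375 viability meaning general cytotoxicity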
[22] = A375 melanoma cell viability loss, dose response, counter-screen for MITF inhibitor project, CellTiter-Glo luminescence, dry powder, set 4 (AID 624364); assay type: functional, cell-based; settings: A-375;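 note: A375 melanoma cells are MITF independent so this is a counter screen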
[23] = target: T2, Small ubiquitin-related modifier 1 (Homo sapiens, UniProt P63165); assay: inhibitors of SUMO1 partner interactions, dose response, biochemical, FRET (AID 624383); assay type: functional; settings: read-out: IC50_Mean
[24] = target: NAD-dependent protein deacylase sirtuin-5, mitochondrial (Homo sapiens, UniProt Q9NXA8); assay: SIRT5 desuccinylase inhibitors, dose response, biochemical, fluorescence imaging, cherry-pick, set 5 (AID 720591);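 note: desuccinylation of succinyl peptide AMC substrate read as fluorescence after trypsin release; potency of inhibitors that lower fluorescence and may act on trypsin instead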
[25] = target: T3, Small ubiquitin-related modifier 2 (Homo sapiens, UniProt P61956); assay: SUMO2–SIM peptide binding inhibitors, dose response, selectivity assay for SUMO1 interaction inhibitor project, biochemical, fluorescence polarization, uHTS hits (AID 624385); assay type: functional; settings: read-out: IC50_Mean
[26] = target: T4, Corticotropin-releasing factor receptor 2/Corticotropin-releasing factor-binding protein (Homo sapiens, UniProt P24387+Q13324); assay: activators of CRF receptor 2 with binding protein – uHTS hits, confirmation (AID 602473); assay type: functional; settings: read-out: EC50_Mean
T4 sequence (Q13324 whole entry): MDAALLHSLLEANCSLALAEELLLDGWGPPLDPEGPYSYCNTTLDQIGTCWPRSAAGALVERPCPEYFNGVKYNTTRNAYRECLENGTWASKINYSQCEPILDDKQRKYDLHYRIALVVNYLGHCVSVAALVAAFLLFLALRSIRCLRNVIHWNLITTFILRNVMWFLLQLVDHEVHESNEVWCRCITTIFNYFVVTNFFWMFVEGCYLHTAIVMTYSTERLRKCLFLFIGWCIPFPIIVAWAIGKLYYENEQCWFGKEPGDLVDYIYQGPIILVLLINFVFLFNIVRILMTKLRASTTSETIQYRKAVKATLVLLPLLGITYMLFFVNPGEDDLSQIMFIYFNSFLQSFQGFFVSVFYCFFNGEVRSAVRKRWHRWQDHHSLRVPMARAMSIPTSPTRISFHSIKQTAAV
T4 sequence (P24387 whole entry): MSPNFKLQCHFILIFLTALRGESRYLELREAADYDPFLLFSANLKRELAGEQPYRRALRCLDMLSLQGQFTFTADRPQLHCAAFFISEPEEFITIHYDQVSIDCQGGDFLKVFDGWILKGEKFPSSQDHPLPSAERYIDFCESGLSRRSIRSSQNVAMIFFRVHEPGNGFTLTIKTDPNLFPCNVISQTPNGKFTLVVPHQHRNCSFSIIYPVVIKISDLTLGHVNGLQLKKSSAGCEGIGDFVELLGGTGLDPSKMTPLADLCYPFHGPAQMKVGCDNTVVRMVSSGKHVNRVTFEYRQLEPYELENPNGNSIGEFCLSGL

Fatty acid synthase [27] = target: T5, Fatty acid synthase (Homo sapiens, UniProt P49327); assay: FAS thioesterase domain inhibitors, dose response, biochemical, kinetic fluorescence intensity (AID 624326); assay type: functional;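 note: rate of fluorescence rise from hydrolysis of a fluorogenic O-methyl fluorescein ester substrate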
[28] = target: T4, Corticotropin-releasing factor receptor 2/Corticotropin-releasing factor-binding protein; assay: Dose Response confirmation of uHTS hits for small molecule antagonists of the CRF-binding protein and CRF-R2 receptor complex.; assay type: functional; settings: read-out: IC50_Mean
[29] = target: T3, Small ubiquitin-related modifier 2; assay: inhibitors of SUMO2 protein-protein interaction, dose response, selectivity assay for SUMO1 interaction inhibitor project, biochemical, FRET, human SUMO2, uHTS hits (AID 624384); assay type: functional; settings: read-out: IC50_Mean
Fatty acid synthase [30] = target: T5, Fatty acid synthase; assay: FAS thioesterase domain inhibitors, dose response, biochemical, endpoint fluorescence intensity, uHTS hits (AID 624327); assay type: functional;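 note: fluorescence from hydrolysis of an O-methyl fluorescein acyl ester substrate by the enzyme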
[31] = target: T2, Small ubiquitin-related modifier 1; assay: inhibitors of SUMO1 peptide binding, dose response, biochemical, fluorescence polarization, uHTS hits (AID 624382); assay type: functional; settings: read-out: IC50_Mean
[32] = CRF-BP/CRF-R2 complex antagonists, dose response, cell-based, uHTS hits, 384-well (AID 651639); assay type: functional, Homo sapiens; settings: read-out: IC50_Mean
[33] = target: DNA (cytosine-5)-methyltransferase 1 (Homo sapiens, UniProt P26358); assay: DNMT1 methyltransferase inhibitors, confirmation, biochemical, fluorescent molecular beacon (AID 602386); assay type: functional
Chain of DNA (cytosine-5)-methyltransferase 1 (P26358 whole entry): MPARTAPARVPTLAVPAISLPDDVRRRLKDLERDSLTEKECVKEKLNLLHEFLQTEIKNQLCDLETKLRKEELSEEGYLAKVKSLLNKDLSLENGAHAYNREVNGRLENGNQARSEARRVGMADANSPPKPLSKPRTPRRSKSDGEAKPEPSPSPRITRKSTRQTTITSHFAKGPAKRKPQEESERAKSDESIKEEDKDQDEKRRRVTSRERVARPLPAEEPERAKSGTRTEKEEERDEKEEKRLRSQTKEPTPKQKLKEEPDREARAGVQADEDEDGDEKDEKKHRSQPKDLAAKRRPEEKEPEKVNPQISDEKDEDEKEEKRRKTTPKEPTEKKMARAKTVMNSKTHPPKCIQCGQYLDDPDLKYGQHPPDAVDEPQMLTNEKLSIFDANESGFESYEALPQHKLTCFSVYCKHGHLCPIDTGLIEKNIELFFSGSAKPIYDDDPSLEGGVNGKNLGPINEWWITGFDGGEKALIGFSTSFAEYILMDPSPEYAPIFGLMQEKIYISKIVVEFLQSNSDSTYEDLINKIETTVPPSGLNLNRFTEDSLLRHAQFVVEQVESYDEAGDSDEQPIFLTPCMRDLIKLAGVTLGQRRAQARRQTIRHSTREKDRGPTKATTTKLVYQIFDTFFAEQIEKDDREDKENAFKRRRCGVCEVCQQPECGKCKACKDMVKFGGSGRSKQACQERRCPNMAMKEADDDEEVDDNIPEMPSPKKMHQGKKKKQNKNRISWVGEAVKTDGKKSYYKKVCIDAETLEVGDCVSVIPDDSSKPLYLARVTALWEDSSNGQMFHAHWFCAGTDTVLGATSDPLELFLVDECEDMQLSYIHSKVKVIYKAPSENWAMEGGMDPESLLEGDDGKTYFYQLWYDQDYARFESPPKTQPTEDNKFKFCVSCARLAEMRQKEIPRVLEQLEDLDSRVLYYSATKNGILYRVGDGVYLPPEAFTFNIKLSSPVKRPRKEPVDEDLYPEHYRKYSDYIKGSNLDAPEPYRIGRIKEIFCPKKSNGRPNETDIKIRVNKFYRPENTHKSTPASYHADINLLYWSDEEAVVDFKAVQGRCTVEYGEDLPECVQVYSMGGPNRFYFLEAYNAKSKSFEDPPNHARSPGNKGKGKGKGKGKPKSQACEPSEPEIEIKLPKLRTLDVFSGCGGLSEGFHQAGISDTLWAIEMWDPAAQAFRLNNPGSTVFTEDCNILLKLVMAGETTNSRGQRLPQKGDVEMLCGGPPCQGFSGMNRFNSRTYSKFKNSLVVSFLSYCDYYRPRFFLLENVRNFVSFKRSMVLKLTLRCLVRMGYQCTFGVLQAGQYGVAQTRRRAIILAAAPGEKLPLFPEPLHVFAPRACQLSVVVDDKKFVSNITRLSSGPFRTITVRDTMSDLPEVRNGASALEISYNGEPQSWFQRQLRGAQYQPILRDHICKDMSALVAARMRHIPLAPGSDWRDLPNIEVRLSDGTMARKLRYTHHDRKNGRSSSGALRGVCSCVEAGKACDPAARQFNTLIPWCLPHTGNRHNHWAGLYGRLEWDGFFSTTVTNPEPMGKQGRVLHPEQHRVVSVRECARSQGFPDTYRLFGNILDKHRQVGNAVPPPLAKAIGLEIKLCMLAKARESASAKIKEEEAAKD

T5 sequence (P49327 whole entry, the tested form may be a part): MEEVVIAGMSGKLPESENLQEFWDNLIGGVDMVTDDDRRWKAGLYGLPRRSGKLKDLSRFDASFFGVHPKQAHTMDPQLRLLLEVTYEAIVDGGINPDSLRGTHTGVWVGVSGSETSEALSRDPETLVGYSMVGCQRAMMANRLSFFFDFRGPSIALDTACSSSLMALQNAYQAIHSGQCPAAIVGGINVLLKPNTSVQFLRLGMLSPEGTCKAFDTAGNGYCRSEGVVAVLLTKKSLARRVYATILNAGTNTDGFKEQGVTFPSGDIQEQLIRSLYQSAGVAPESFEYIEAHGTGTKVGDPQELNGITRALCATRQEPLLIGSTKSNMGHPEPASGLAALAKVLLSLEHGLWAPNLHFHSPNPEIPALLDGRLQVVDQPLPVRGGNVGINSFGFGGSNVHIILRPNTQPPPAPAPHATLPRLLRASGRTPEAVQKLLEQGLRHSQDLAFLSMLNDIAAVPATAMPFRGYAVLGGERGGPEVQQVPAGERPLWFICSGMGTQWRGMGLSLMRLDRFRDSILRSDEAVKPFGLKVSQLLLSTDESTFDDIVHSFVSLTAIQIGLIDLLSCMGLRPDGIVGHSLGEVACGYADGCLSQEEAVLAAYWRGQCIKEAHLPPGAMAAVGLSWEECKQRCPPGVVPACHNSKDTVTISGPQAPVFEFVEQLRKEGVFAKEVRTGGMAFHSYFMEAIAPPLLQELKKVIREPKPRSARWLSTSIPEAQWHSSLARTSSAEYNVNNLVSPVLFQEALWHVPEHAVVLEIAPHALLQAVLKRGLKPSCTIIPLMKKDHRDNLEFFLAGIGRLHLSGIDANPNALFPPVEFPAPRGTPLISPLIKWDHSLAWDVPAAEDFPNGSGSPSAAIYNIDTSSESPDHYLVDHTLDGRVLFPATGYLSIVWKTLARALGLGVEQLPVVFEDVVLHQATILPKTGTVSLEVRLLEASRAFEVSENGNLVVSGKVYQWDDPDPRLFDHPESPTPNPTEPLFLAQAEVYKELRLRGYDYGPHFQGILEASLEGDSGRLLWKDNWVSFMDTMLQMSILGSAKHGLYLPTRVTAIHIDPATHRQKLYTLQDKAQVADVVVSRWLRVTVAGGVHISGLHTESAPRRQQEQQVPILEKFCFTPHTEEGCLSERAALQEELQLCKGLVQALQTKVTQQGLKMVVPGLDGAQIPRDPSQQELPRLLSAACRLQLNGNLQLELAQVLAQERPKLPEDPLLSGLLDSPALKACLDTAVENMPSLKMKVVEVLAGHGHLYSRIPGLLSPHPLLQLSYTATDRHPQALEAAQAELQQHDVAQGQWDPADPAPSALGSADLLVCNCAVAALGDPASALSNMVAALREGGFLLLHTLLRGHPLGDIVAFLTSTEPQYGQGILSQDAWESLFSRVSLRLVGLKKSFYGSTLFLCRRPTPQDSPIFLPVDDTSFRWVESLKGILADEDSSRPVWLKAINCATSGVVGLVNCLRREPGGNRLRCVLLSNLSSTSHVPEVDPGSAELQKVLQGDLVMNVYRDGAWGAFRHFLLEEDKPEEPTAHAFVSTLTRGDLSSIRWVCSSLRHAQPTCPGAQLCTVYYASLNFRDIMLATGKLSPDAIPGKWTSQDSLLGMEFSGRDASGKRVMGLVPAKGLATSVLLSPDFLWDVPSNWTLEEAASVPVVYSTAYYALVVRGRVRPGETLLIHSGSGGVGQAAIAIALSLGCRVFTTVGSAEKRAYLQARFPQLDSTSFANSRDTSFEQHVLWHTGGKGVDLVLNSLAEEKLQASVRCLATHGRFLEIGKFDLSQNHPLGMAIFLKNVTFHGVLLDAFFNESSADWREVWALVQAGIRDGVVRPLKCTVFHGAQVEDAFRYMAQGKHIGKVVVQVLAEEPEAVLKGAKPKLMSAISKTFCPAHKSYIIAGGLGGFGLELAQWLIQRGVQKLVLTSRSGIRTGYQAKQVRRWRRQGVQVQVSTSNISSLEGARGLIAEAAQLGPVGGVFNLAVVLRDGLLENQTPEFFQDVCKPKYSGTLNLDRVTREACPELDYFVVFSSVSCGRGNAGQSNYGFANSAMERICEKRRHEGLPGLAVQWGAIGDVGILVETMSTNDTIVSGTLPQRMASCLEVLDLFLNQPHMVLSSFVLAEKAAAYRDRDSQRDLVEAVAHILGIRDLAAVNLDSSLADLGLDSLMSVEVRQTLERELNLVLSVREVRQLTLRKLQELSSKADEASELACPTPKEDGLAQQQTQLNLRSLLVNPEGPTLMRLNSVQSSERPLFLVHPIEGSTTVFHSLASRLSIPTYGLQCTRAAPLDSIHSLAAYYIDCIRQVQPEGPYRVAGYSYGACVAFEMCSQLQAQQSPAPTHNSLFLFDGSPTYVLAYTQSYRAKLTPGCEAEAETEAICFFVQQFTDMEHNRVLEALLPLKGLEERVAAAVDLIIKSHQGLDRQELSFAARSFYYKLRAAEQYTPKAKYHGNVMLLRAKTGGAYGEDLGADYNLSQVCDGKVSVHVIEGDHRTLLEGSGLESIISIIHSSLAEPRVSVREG
Chain of Paired box protein Pax-8 (Q06710 whole entry): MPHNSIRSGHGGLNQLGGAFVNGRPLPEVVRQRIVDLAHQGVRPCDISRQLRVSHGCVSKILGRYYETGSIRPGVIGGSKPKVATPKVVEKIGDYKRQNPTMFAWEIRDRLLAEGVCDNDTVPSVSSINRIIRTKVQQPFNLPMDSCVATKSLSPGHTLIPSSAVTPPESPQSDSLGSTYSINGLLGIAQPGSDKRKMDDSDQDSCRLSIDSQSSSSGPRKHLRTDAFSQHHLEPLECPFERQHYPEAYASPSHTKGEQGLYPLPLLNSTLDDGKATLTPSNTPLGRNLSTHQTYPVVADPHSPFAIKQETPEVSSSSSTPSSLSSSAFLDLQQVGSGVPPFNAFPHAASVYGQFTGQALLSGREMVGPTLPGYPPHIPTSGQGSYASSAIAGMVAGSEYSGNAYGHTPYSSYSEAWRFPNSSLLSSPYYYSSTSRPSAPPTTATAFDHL
T3 sequence (P61956 whole entry): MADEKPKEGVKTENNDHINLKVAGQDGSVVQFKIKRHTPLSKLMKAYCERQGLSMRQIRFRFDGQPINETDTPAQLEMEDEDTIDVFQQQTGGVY
T2 sequence (P63165 whole entry): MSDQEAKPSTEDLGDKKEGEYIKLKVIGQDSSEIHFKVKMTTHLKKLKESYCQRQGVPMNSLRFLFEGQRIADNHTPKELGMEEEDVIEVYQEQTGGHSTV
Chain of NAD-dependent protein deacylase sirtuin-5, mitochondrial (Q9NXA8 whole entry): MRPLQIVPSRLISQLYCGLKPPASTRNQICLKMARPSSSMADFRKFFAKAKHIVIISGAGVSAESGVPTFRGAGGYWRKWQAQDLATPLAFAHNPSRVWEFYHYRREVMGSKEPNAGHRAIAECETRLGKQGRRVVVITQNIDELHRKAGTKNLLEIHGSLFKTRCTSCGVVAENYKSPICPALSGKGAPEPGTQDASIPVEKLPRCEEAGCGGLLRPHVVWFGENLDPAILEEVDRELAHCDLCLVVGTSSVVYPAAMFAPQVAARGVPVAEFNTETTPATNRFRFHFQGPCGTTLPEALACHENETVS

CCOC(=O)[C@@H]1[C@@H]2C=C[C@]3(O2)[C@H](C(=O)NCc2ccccc2)N(CCCCCCO)C(=O)[C@@H]13
active: AC50 [1] 48.1 µM

Cc1ccc(NC(=O)CN(C)C(=O)CCSc2ccc(F)cc2)cc1
active: IC50 [3] 3.09 µM | IC50 [4] 4.57 µM
inactive: IC50 [2] 83.3 µM | IC50 [5] > 83.3 µM

O=C(C1CC1)N1C[C@@H]2N[C@H](C1)[C@@H]2c1ccc(-c2cccc(F)c2)cc1
active: AC50 [6] 21.2 µM | AC50 [7] 27 µM | AC50 [8] 28.1 µM | AC50 [9] 6.56 µM | AC50 [10] 3.9 µM | AC50 (Paired box protein Pax-8) 6.38 µM | AC50 [11] 0.9 µM | AC50 [12] 1.04 µM | AC50 [13] 0.778 µM | AC50 [14] 21.1 µM | AC50 [15] 19.6 µM | AC50 [16] 26.7 µM | AC50 [17] 23.2 µM | AC50 [18] 2.2 µM | AC50 [19] 12.5 µM

COc1ccc(S(=O)(=O)Nc2ccc3c(c2)C(=O)N([C@H](C)CO)C[C@@H](C)[C@@H](CN(C)Cc2ccc(C(F)(F)F)cc2)OCCCC[C@@H](C)O3)cc1
active: AC50 [6] 30.6 µM | AC50 [7] 27.9 µM | AC50 (Paired box protein Pax-8) 7.09 µM | AC50 [20] 51.2 µM | AC50 [16] 65.2 µM

C=CCNC1=C(N2CCOCC2)C(=O)c2ccccc2C1=O
active: AC50 [21] 9.04 µM | AC50 [22] 34.1 µM

COc1cc(CCc2ccccc2)c(C(=O)O)c(O)c1C/C=C(/C)CCC=C(C)C
inactive: IC50 [25] 28.8 µM | EC50 [26] > 53 µM
active: IC50 [23] 14.4 µM | AC50 [24] 15.7 µM | IC50 (Fatty acid synthase [27]) 8.42 µM | IC50 [28] < 0.368 µM | IC50 [29] 15.5 µM | IC50 (Fatty acid synthase [30]) 8.25 µM | IC50 [31] 17.8 µM | IC50 [32] 3.79 µM | IC50 [33] 3.5 µM
